# Results: patent US7026488B2, “Antitumor agents and process for producing the same” (priority 2001, dated 2006)
# Entries after “also recorded” stand apart in the source; their conditions may differ.
# How the values were obtained:
# Solubility in water = assay type: physicochemical; conditions: for i.v. injection
# tumor = conditions: administered into the tumor feeding artery, oily formulation; K. Doi et al. 1999; cited from earlier work
# sarcoma S180 = assay: Antitumor effect in mice bearing solid tumor; assay type: in vivo, mouse; conditions: ddY mice, i.v. 30, 30 and 50 n mole on days 10, 13 and 15 after implantation, FIG. 4
# Description: (§1) Similar to Experiment 3 above, sarcoma S180 of mice implanted under the dosal skin of ddY mice, and after 10, 13 and 15 days after tumor implantation, PEG-ZnPP at 30 n mole, 30 n mole and 50 n mole (3 times only), respectively, was injected into the tail vein respectively (see also arrow marks in FIG. 4). Control mice received distilled water instead of PEG-ZnPP.
# [1] = system: heme oxygenase in S 180 sarcoma tumor tissue; assay: Inhibition of heme oxygenase in solid tumor model in mouse; assay type: in vivo; conditions: ddY mice, S 180 tumor
# Description: In male ddY mice with mean body weight of 35 g, S 180 sarcoma cells were implanted in the dorsal skin, and when solid tumor size become 5 mm in cross diameter after about one week, PEG-ZnPP dissolved in distilled water were injected via tail vein (i.v.) at 0.5 mg ZnPP equivalent per Kg body weight. The solid tumors were removed after 24 hr, and heme oxygenase activity was quantified similarly as described in Example 1. Control mouse received distilled water without PEG-ZnPP. The tumor specimens were obtained and treated similarly.
# [2] = system: Lung adenocarcinoma cell line A549 cells; assay: Oxidative stress in cultured tumor cells (DCDHF fluorescence, flow cytometry); assay type: cell-based; conditions: 5 μM and 10 μM, 8 hrs, compared with no drug, FIG. 3
# Description: Lung adenocarcinoma cell line A549 cells were plated in plastic dish and after overnight culture, 5 μM and 10 μM of PEG-ZnPP dissolved in distilled water were added to the culture dishes. Then, 8 hrs after cultivation at 37° C., a reagent that quantifies oxidative stress, called dichlorodihydrofluorescein diacetyl ester (DCDHF) was added and allowing cell culture for 30 minutes. Under oxidative stress, this DCDHF will be become oxidized and will fluoresce due to oxystress was generated by formation of fluorescein in cells.
# Quantification of fluorescence intensity represents the extent of oxidative stress induced in the cells. Then, cultured cells were trypsinized and recovered cells were subjected to the flow cytometrory analysis and fluorescence cell population was quantified. The results are shown in FIG. 3, where the effect of PEG-ZnPP at 5 μM, 10 μM, is compared with that of no drug.
# [3] = Change of body weight in mice bearing solid tumor; assay type: in vivo, mouse; conditions: ddY mice bearing S180, during or after i.v. administration, FIG. 5
# Description: as §1
# [4] = biological target: T1, purified heme oxygenase fraction derived from rat spleen (Rattus norvegicus, UniProt P06762); assay: Inhibitory activity against heme oxygenase (bilirubin formation, Lineweaver-Burk plot); assay type: biochemical
# T1 construct: purified heme oxygenase fraction derived from rat spleen; from tissue; host or cells: rat spleen
# T1 sequence (P06762 1-289): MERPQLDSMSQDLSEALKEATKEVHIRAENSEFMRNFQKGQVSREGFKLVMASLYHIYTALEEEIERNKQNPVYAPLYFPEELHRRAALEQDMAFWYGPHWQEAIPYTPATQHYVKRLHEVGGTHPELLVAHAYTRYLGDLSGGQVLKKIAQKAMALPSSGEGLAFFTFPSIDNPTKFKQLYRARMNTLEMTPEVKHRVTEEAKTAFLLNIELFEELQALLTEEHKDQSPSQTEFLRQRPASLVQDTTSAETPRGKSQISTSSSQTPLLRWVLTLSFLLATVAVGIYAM
# Description: This was examined using purified heme oxygenase fraction derived from rat spleen. It was assayed at 37° C. in the presence of hemin, the substrate of heme oxygenase, cofactor (NADPH, […]), and cytosolic fraction containing bilirubin reductase, in which biliverdin formed by the oxygenase is converted to bilirubin.
# Bilirubin was extracted with chloroform and quantified by absorption at 465 nm. By the addition of either PEG-ZnPP, or unmodified ZnPP, or no inhibitor, their effect on heme oxidase was examined, and the Lineweaver-Burk plot of heme oxygenase activity was plotted during the inhibition by PEG-ZnPP. […] Mode of inhibition was competitive, and the value was equivalent to that of unmodified ZnPP.
"Ki ([4]; 37° C., hemin substrate, NADPH, cytosolic fraction with bilirubin reductase, read-out: inhibitory constant (Ki) against heme oxygenase) [nM]","Mode of inhibition of heme oxygenase ([4]; Lineweaver-Burk plot, FIG. 2)",Molecule,Solubility in water (Solubility in water),Solubility in water (Solubility in water; listed as Unmodified ZnPP),Antitumor effect in rats (tumor),Tumor growth (tumor size) compared with control group (sarcoma S180),"Activity of heme oxygenase in tumor tissue ([1]; i.v. tail vein 0.5 mg ZnPP equivalent per Kg, tumor removed after 24 hr, control 4.17 ± 1.07 (P < 0.02))","Effect on intratumor heme oxygenase activity (in words) ([1]; i.v. tail vein, 24 hr)",intracellular oxidative state (DCDHF fluorescence) [2],Body weight change [3],Inhibition of heme oxygenase (in words) ([4]; FIG. 2)
–,–,"C=CC1=C(C)c2cc3[n-]c(cc4nc(cc5[n-]c(cc1n2)c(C)c5C=C)C(C)=C4CCC(=O)O)c(CCC(=O)O)c3C.[Zn+2] [ZnPP, zinc protoporphyrin]",almost insoluble in water,could not be administered i.v. because of its difficulty in solubility; also recorded: Impossible to solubilize,confirmed antitumor effect in rats,–,–,–,–,–,–
130,competitive,Polyethylene Glycol Conjugated ZnPP [PEG-ZnPP],–,–,–,remarkable suppression of tumor growth,2.30 ± 0.54 n mol bilirubin/mg protein/hr,significant reduction of the heme oxygenase activity,higher intracellular oxidative state in the dose dependent manner,no remarkable body weight loss,inhibits the heme oxygenase in a dose dependent manner
